# Experimental data as given in patent publication US20250041306A1, “TARGETED PROTEASE DEGRADATION (TED) PLATFORM” (EUBULUS BIOTHERAPEUTICS INC., priority 2021, published 2025).
# Like-named read-outs stand apart in the source and are kept apart here. Numbered stars: 1 amine (or outer) side, 2 acyl side, 3 side chain; on linkers, the order of the positions; unused ones are H or OH. Bridge positions count the residues as written; N and C are the ends. Square brackets hold non-standard residues; d marks the D form. Peptide text beside a SMILES is read from it. I, II: the chains in the order shown. * marks the point of attachment. X2 = NC(=O)c1ccccc1Nc1nc(Nc2ccc(N3CCN(C(=O)NC4CCC(N(CCC#Cc5ccc6c(c5)CN(C5CCC(=O)NC5=O)C6=O)*)CC4)CC3)cc2)ncc1Cl; Succinimide(1-C2H4CO,3-yl) = O=C1CC([*:1])C(=O)N1CCC(=O)[*:2]; PABC = O=C(OCc1ccc(N[*:1])cc1)[*:2]; Thr(ol) = C[C@@H](O)[C@H](N)CO
# Assays:
# Assay type in all cases: cell-based
# [1] = test system: Human Small Cell Lung Cancer NCI-H82; test: Cell proliferation experiment (Alarm blue), H82
# Description: (§1) The cells were cultured in conventional ways, and the cells should be passed for at least 2 generations before plating. Cells at the logarithmic growth phase were collected, prepared into single cell suspensions and counted. The concentration of cells was adjusted to desired concentration, and cells were inoculated into a 96-well cell culture plate at 100 μl per well. 100 μL of complete medium of the test compound were added to each well, 2 replicate wells for each concentration were set up, and diluted with a 5-fold gradient, and continued to culture for 72 h. All cells were subjected to EC50 test for corresponding samples.
# (§2) The fluorescence intensity of each well was detected using the Alarm blue method, and IC50 was calculated.
# (§3) IC50 was calculated according to the following formula:
# (§4) [formula] • wherein Min, Max and Slope represent the minimum, maximum and slope respectively.
# [2] = test system: human gastric carcinoma cells N87; test: Cell proliferation experiment (Alarm blue), N87
# Description: as §1, §2, §3, §4
# [3] = test system: Human Colon Cancer cells Colo205; test: Cell proliferation experiment (Alarm blue), Colo205
# Description: as §1, §2, §3, §4
# [4] = test system: Human Small Cell Lung Cancer H69; test: Cell proliferation experiment (Alarm blue), H69
# Description: as §1, §2, §3, §4
# Human Colon Cancer HT-29 = test: Cell proliferation experiment (Alarm blue), HT-29
# Description: as §1, §2, §3, §4
# [5] = H82 cells, 72 h culture, read-out: Anti cell proliferative activity EC50, H82
# [6] = N87 cells, 72 h culture, read-out: Anti cell proliferative activity EC50, N87
# [7] = Colo205 cells, 72 h culture, read-out: Anti cell proliferative activity EC50, Colo205
# [8] = H69 cells, 72 h culture, read-out: Anti cell proliferative activity EC50, H69
# [9] = HT-29 cells, 72 h culture, read-out: Anti cell proliferative activity EC50, HT-29
# [10] = Homo sapiens, NCI-H82, 72 h, H82 cells, 72 h culture, read-out: Anti cell proliferative activity EC50, H82
# [11] = Homo sapiens, 72 h, N87 cells, 72 h culture, read-out: Anti cell proliferative activity EC50, N87
# [12] = Homo sapiens, COLO 205, 72 h, Colo205 cells, 72 h culture, read-out: Anti cell proliferative activity EC50, Colo205
# [13] = Homo sapiens, NCI-H69, H69 cells, 72 h culture, read-out: Anti cell proliferative activity EC50, H69
# [14] = Homo sapiens, HT-29 cells, 72 h culture, read-out: Anti cell proliferative activity EC50, HT-29
smiles,measurement,setting,value
N=C(N)NCCC[C@H](NC(=O)[C@H](CC(=O)O)NC(=O)CC[C@H](NC(=O)c1ccc(NCc2cnc3nc(N)[nH]c(=O)c3n2)cc1)C(=O)O)C(=O)N[C@@H](CC(=O)O)C(=O)N[C@@H](CC(=O)O)C(=O)N[C@@H](CSSCCOC(=O)N(CCC#Cc1ccc2c(c1)CN(C1CCC(=O)NC1=O)C2=O)C1CCC(NC(=O)N2CCN(c3ccc(Nc4ncc(Cl)c(Nc5ccccc5C(N)=O)n4)cc3)CC2)CC1)C(=O)O (some centres unmarked) [UB-181327],EC50,[1]; [5],283 nM
same,EC50,[2]; [6],> 1000 nM
same,EC50,[3]; [7],243 nM
same,EC50,[4]; [8],> 1000 nM
same,EC50,Human Colon Cancer HT-29; [9],855 nM
NC(=O)c1ccccc1Nc1nc(Nc2ccc(N3CCN(C(=O)NC4CCN(CCNCCC#Cc5ccc6c(c5)CN(C5CCC(=O)NC5=O)C6=O)CC4)CC3)cc2)ncc1Cl (centres unmarked) [UB-181274],EC50,[1]; [10],27.7 nM
same,EC50,[2]; [11],18.2 nM
same,EC50,[3]; [12],49.4 nM
same,EC50,[4]; [13],> 1000 nM
same,EC50,Human Colon Cancer HT-29; [14],522 nM
CNC(=O)c1ccccc1Nc1nc(Nc2ccc(N3CCN(C(=O)CNCCC#Cc4ccc5c(c4)CN(C4CCC(=O)NC4=O)C5=O)CC3)cc2)ncc1Cl (centres unmarked) [UB-181272],EC50,[1]; [10],19.1 nM
same,EC50,[2]; [11],23.1 nM
same,EC50,[3]; [12],21.1 nM
same,EC50,[4]; [13],> 1000 nM
same,EC50,Human Colon Cancer HT-29; [14],332 nM
"C[C@H](NC(=O)[C@H](CC(=O)O)NC(=O)[C@H](CC(=O)O)NC(=O)[C@H](CCCNC(=N)N)NC(=O)[C@H](CC(=O)O)NC(=O)CCN1C(=O)CC(SC[C@H](N)C(=O)N[C@@H](Cc2ccccc2)C(=O)N[C@H]2CSSC[C@@H](C(=O)N[C@H](CO)[C@@H](C)O)NC(=O)[C@H]([C@@H](C)O)NC(=O)[C@H](CCCCN)NC(=O)[C@@H](Cc3c[nH]c4ccccc34)NC(=O)[C@H](Cc3ccccc3)NC2=O)C1=O)C(=O)N[C@@H](CC(N)=O)C(=O)Nc1ccc(COC(=O)N(CCC#Cc2ccc3c(c2)CN(C2CCC(=O)NC2=O)C3=O)C2CCC(NC(=O)N3CCN(c4ccc(Nc5ncc(Cl)c(Nc6ccccc6C(N)=O)n5)cc4)CC3)CC2)cc1 (some centres unmarked) [UB-181343] (I: H-CFCF[dW]KTC[Thr(ol)] / II: DRDDAN[PABC]-X2; linker I:1-II:N via Succinimide(1-C2H4CO,3-yl); disulfide I:3-I:8)",EC50,[1]; 72 h,103 nM
same,EC50,[2]; 72 h,305 nM
same,EC50,[3]; 72 h,285 nM
same,EC50,[4]; 72 h,738 nM
same,EC50,Human Colon Cancer HT-29; 72 h,> 1000 nM
CNC(=O)c1ccccc1Nc1nc(Nc2ccc(N3CCN(C(=O)N[C@H]4CC[C@@H](N(CCC#Cc5ccc6c(c5)CN(C5CCC(=O)NC5=O)C6=O)C(=O)OCc5ccc(NC(=O)[C@H](CCCNC(N)=O)NC(=O)[C@@H](NC(=O)CCCCCN6C(=O)CC(SC[C@H](N)C(=O)N[C@H](Cc7ccccc7)C(=O)N[C@H]7CSSC[C@@H](C(=O)N[C@H](CO)[C@@H](C)O)NC(=O)[C@H]([C@@H](C)O)NC(=O)[C@H](CCCCN)NC(=O)[C@@H](Cc8c[nH]c9ccccc89)NC(=O)[C@H](Cc8ccccc8)NC7=O)C6=O)C(C)C)cc5)CC4)CC3)cc2)ncc1Cl (some centres unmarked) [UB-181246],EC50,[1]; [5],298 nM
same,EC50,[2]; [6],515 nM
same,EC50,[3]; [7],236 nM
same,EC50,[4]; [8],> 1000 nM
same,EC50,Human Colon Cancer HT-29; [9],> 1000 nM
NC(=O)c1ccccc1Nc1nc(Nc2ccc(N3CCN(C(=O)CNCCC#Cc4ccc5c(c4)CN(C4CCC(=O)NC4=O)C5=O)CC3)cc2)ncc1Cl (centres unmarked) [UB-181273],EC50,[1]; [10],21.6 nM
same,EC50,[2]; [11],> 1000 nM
same,EC50,[3]; [12],21.4 nM
same,EC50,[4]; [13],375 nM
same,EC50,Human Colon Cancer HT-29; [14],56.2 nM
CNC(=O)c1ccccc1Nc1nc(Nc2ccc(N3CCN(C(=O)N[C@H]4CC[C@@H](N(CCC#Cc5ccc6c(c5)CN(C5CCC(=O)NC5=O)C6=O)C(=O)OCCSSC[C@H](NC(=O)[C@H](CC(=O)O)NC(=O)[C@H](CC(=O)O)NC(=O)[C@H](CCCNC(=N)N)NC(=O)[C@H](CC(=O)O)NC(=O)CCC(NC(=O)c5ccc(NCc6cnc7nc(N)[nH]c(=O)c7n6)cc5)C(=O)O)C(=O)O)CC4)CC3)cc2)ncc1Cl (some centres unmarked) [UB-181321],EC50,[1]; 72 h,171 nM
same,EC50,[2]; 72 h,> 1000 nM
same,EC50,[3]; 72 h,239 nM
same,EC50,[4]; 72 h,> 1000 nM
same,EC50,Human Colon Cancer HT-29; 72 h,> 1000 nM
